The source of these data is US20240425484A1, “INHIBITORS OF TYK2” (Atomwise Inc., priority 2023, published 2024).

In this assay the target is T1, TYK2-JH2 (Homo sapiens, UniProt P29597).
T1 construct: TYK JH2 enzyme mix (ChemPartner: CP20210818A-BV); purchased ChemPartner CP20210818A-BV
T1 sequence (P29597 589-875 limits assumed): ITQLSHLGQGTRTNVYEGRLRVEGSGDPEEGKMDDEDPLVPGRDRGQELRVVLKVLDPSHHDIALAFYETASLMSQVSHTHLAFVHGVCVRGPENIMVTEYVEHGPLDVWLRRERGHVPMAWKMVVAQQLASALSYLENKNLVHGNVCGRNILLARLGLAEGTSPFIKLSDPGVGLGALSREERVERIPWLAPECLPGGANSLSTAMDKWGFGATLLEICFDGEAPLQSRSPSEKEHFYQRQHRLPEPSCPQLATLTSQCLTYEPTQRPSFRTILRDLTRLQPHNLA
Kind of assay: TYK2-JH2 HTRF binding assay (ligand efficiency). Particulars: calculated (Equation 1) from IC50 of the TYK-JH2 binding assay. As to the method: The following example describes the TYK2-JH2 HTRF binding assay used to determine the ligand efficiency of the TYK2 inhibitors.
To calculate ligand efficiency, Equation 1 is applied: […]
in which IC50 comes from the binding assay used to determine compound potency.
TYK JH2 enzyme mix (ChemPartner: CP20210818A-BV), tracer (ChemPartner: CP-0029472-051) and mAb Anti-6HIS Tb cryptate Gold (Cisbio: Cat No. 61HI2TLA) mix were prepared in assay buffer (10 mM MgCl2, 20 mM HEPES pH 7.5, 0.01% Triton X-100, 1 mM DTT). Compounds diluted in DMSO (Final Concentrations 0.1 to 0.000005 [μM]) and enzyme mix (0.5 nM Final Concentration) were added to 384 well plates, briefly centrifuged and incubated at room temperature for 10 minutes. After incubation, tracer mix (Tracer-35 nM final concentration); (MAb Anti-6HIS Tb cryptate Gold-0.5X final)) was added, briefly centrifuged then incubate at room temperature 60 minutes. After incubation, plates were read by Envision TR-FRET (Ex340/Em495/520) protocol (PerkinElmer-Envision 2104 multilabel plate reader).
In the case of `CC(c1ccc(Nc2cc(Nc3ncccc3S(C)(=O)=O)ncn2)nc1)N1CC2(CC(F)C2)C1` (stereo in doubt) [Compound 10, N^4-(5-((1R)-1-(6-fluoro-2-azaspiro[3.3]heptan-2-yl)ethyl)pyridin-2-yl)-N^6-(3-(methylsulfonyl)pyridin-2-yl)pyrimidine-4,6-diamine], the “Ligand Efficiency” value is “††† (†††: >0.39)”.
For `CC(c1ccc(Nc2cc(Nc3ncccc3S(C)(=O)=O)ncn2)nc1)N1CCCC1` (stereo in doubt) [Compound 15, (R)—N^4-(3-(methylsulfonyl)pyridin-2-yl)-N^6-(5-(1-(pyrrolidin-1-yl)ethyl)pyridin-2-yl)pyrimidine-4,6-diamine], the “Ligand Efficiency” value is recorded as “††† (†††: >0.39)”.
For the compound `CC(NC1COC1)c1ccc(Nc2cc(Nc3ccccc3S(C)(=O)=O)ncn2)nc1` (stereo in doubt) [Compound 40, (R)—N^4-(2-(methylsulfonyl)phenyl)-N^6-(5-(1-(oxetan-3-ylamino)ethyl)pyridin-2-yl)pyrimidine-4,6-diamine], the “Ligand Efficiency” value is “††† (†††: >0.39)”.
For `CS(=O)(=O)c1cccnc1Nc1cc(Nc2ccc(N3CCN(C4CC4)CC3)cn2)ncn1` [Compound 7, N^4-(5-(4-cyclopropylpiperazin-1-yl)pyridin-2-yl)-N^6-(3-(methylsulfonyl)pyridin-2-yl)pyrimidine-4,6-diamine], the “Ligand Efficiency” value is on record as “††† (†††: >0.39)”.
Consider `CS(=O)(=O)c1cccnc1Nc1cc(Nc2ccc3c(n2)CC[C@@H]3N2CC3(COC3)C2)ncn1` [Compound 9, N^4-((5S)-5-(2-oxa-6-azaspiro[3.3]heptan-6-yl)-6,7-dihydro-5H-cyclopenta[b]pyridin-2-yl)-N^6-(3-(methylsulfonyl)pyridin-2-yl)pyrimidine-4,6-diamine], for which the “Ligand Efficiency” value was “††† (†††: >0.39)”.
For `C[C@@H](c1ccc(Nc2cc(Nc3ncc(Cl)cc3S(C)(=O)=O)ncn2)nc1)N1CC2(COC2)C1` [Compound 14, (S)—N^4-(5-(1-(2-oxa-6-azaspiro[3.3]heptan-6-yl)ethyl)pyridin-2-yl)-N^6-(5-chloro-3-(methylsulfonyl)pyridin-2-yl)pyrimidine-4,6-diamine], the “Ligand Efficiency” value is “††† (†††: >0.39)”.
On to `CS(=O)(=O)c1cccnc1Nc1cc(Nc2cccc(C(F)(F)F)n2)ncn1` [Compound 19, N^4-(3-(methylsulfonyl)pyridin-2-yl)-N^6-(6-(trifluoromethyl)pyridin-2-yl)pyrimidine-4,6-diamine], for which the “Ligand Efficiency” value was “††† (†††: >0.39)”.
For `C[C@H]1CN(C)CCN1c1ccc(Nc2cc(Nc3ncccc3S(C)(=O)=O)ncn2)nc1` [Compound 20, (S)—N^4-(5-(2,4-dimethylpiperazin-1-yl)pyridin-2-yl)-N^6-(3-(methylsulfonyl)pyridin-2-yl)pyrimidine-4,6-diamine], the “Ligand Efficiency” value was “††† (†††: >0.39)”.
As for `CC1(Nc2ccc(Nc3cc(Nc4ncccc4S(C)(=O)=O)ncn3)nc2)COC1` [Compound 21, N^4-(5-((3-methyloxetan-3-yl)amino)pyridin-2-yl)-N^6-(3-(methylsulfonyl)pyridin-2-yl)pyrimidine-4,6-diamine], the “Ligand Efficiency” value is “††† (†††: >0.39)”.
With `CC(c1ccc(Nc2cc(Nc3ncccc3S(C)(=O)=O)ncn2)nc1)N1CC(F)C1` (centres unmarked) [Compound 22, N^4-(5-(1-(3-fluoroazetidin-1-yl)ethyl)pyridin-2-yl)-N^6-(3-(methylsulfonyl)pyridin-2-yl)pyrimidine-4,6-diamine], the “Ligand Efficiency” value is recorded as “††† (†††: >0.39)”.
Regarding `Cc1cc(Nc2cc(Nc3ncccc3S(C)(=O)=O)ncn2)ncc1NC1(C)COC1` [Compound 23, N^4-(4-methyl-5-((3-methyloxetan-3-yl)amino)pyridin-2-yl)-N^6-(3-(methylsulfonyl)pyridin-2-yl)pyrimidine-4,6-diamine], the “Ligand Efficiency” value was “††† (†††: >0.39)”.
As for `C[C@@H](c1ccc(Nc2cc(Nc3ncccc3S(C)(=O)=O)ncn2)nc1)N1C[C@H]2COC[C@H]2C1` [Compound 25, N^4-(3-(methylsulfonyl)pyridin-2-yl)-N^6-(5-(1-((3aR,6aS)-tetrahydro-1H-furo[3,4-c]pyrrol-5 (3H)-yl)ethyl)pyridin-2-yl)pyrimidine-4,6-diamine], the “Ligand Efficiency” value is reported as “††† (†††: >0.39)”.
As for `CS(=O)(=O)c1ccccc1Nc1cc(Nc2ccc3c(n2)CCCC3N2CC3(CCOCC3)C2)ncn1` (centres unmarked) [Compound 27, N^4-(5-(7-oxa-2-azaspiro[3.5]nonan-2-yl)-5,6,7,8-tetrahydroquinolin-2-yl)-N^6-(2-(methylsulfonyl)phenyl)pyrimidine-4,6-diamine], the “Ligand Efficiency” value is recorded as “† (†: <0.37)”.
Consider `C[C@@H](c1ccc(Nc2cc(Nc3ncccc3S(C)(=O)=O)ncn2)nc1)N1CC2(CCOC2)C1` [Compound 32, (S)—N^4-(5-(1-(6-oxa-2-azaspiro[3.4]octan-2-yl)ethyl)pyridin-2-yl)-N^6-(3-(methylsulfonyl)pyridin-2-yl)pyrimidine-4,6-diamine], for which the “Ligand Efficiency” value is reported as “††† (†††: >0.39)”.
To `CC(NC1CC(F)(F)C1)c1ccc(Nc2cc(Nc3ncccc3S(C)(=O)=O)ncn2)nc1` (centres unmarked) [Compound 35, N^4-(5-(1-(3,3-difluorocyclobutylamino)ethyl)pyridin-2-yl)-N^6-(3-(methylsulfonyl)pyridin-2-yl)pyrimidine-4,6-diamine] belongs “††† (†††: >0.39)”; to `CC1(CNc2ccc(Nc3cc(Nc4ncccc4S(C)(=O)=O)ncn3)nc2)COC1` [Compound 36, N^4-(5-(((3-methyloxetan-3-yl)methyl)amino)pyridin-2-yl)-N^6-(3-(methylsulfonyl)pyridin-2-yl)pyrimidine-4,6-diamine], “††† (†††: >0.39)”.
Take `CS(=O)(=O)c1cccnc1Nc1cc(Nc2ccc(NC3CC(F)(F)C3)cn2)ncn1` [Compound 37, N^4-(5-(3,3-difluorocyclobutylamino)pyridin-2-yl)-N^6-(3-(methylsulfonyl)pyridin-2-yl)pyrimidine-4,6-diamine]: the “Ligand Efficiency” value is on record as “††† (†††: >0.39)”.
In the case of `CS(=O)(=O)c1cccnc1Nc1cc(Nc2ccc(C(=O)NC3CC(F)(F)C3)cn2)ncn1` [Compound 38, N-(3,3-difluorocyclobutyl)-6-(6-(3-(methylsulfonyl)pyridine-2-ylamino)pyrimidin-4-ylamino) nicotinamide], the “Ligand Efficiency” value was “††† (†††: >0.39)”.
To `CS(=O)(=O)c1ccccc1Nc1cc(Nc2ccc(N3CCOCC3)cn2)ncn1` [Compound 42, N^4-(2-(methylsulfonyl)phenyl)-N^6-(5-morpholinopyridin-2-yl)pyrimidine-4,6-diamine] belongs “††† (†††: >0.39)”; to `Cc1ccnc(Nc2cc(Nc3ccccc3C(N)=O)ncn2)c1` [Compound 45, 2-((6-((4-methylpyridin-2-yl)amino)pyrimidin-4-yl)amino)benzamide], “††† (†††: >0.39)”; to `Cc1cccc(Nc2cc(Nc3ccccc3C(N)=O)ncn2)n1` [Compound 46], “††† (†††: >0.39)”.
In the case of `Cc1cnnc(Nc2cc(Nc3ccccc3C(N)=O)ncn2)c1` [Compound 47, 2-((6-((5-methylpyridazin-3-yl)amino)pyrimidin-4-yl)amino)benzamide], the “Ligand Efficiency” value was “††† (†††: >0.39)”.
Regarding `Cc1nccc(Nc2cc(Nc3ccccc3C(N)=O)ncn2)n1` [Compound 48, 2-((6-((2-methylpyrimidin-4-yl)amino)pyrimidin-4-yl)amino)benzamide], the “Ligand Efficiency” value is recorded as “††† (†††: >0.39)”.
